Data reported in patent US20240024262A1, “USE OF VALERIC ACID IN PREPARATION OF DRUG FOR PREVENTING AND TREATING DIABETES” (Harbin Medical University, priority 2022, published 2024).

Experiments:
Beta-TC-6 cell line [1] = assay: Insulin secretion ability test; type: cell-based, mouse; settings: for secretion levels of the insulin stimulated under a high glucose environment: high sugar (20 mmol/L), after PA intervention
Excerpt: (§1) Through an insulin secretion ability test, the levels of the insulin produced in each group under concentrations of no sugar, low sugar (2.8 mmol/L) and high sugar (20 mmol/L) are compared.

[2] = test system: mouse primary islet β cells; assay: Insulin secretion ability test; type: cell-based; settings: for secretion levels of the insulin stimulated under a high glucose environment: high sugar (20 mmol/L), after PA intervention
Excerpt: as §1

Beta-TC-6 cell line [3] = assay: TUNEL cell apoptosis detection test; type: cell-based, mouse; settings: PA intervention, then SV intervention
Excerpt: (§2) During the cell testing phase of this example, a cell line of mouse insulinoma islet β cells (Beta-TC-6) and mouse primary islet β cells were purchased from Wuhan Prosser Life Technology Co., Ltd for carrying out relevant experimental researches.
(§3) A cell Counting Kit 8 (CCK-8) is a convenient and reliable method to detect the cell activity. In this example, a BeyoClick™ EdU-488 kit is further used to detect the proliferation level of the cells. EdU (5-ethynyl-2′-deoxyuridine) is a thymidine analog that may replace T to infiltrate replicated DNA molecules in the process of cell proliferation. The replication activity of DNA was detected by specific reaction of EdU and an Apollo® Fluor 488 fluorescent dye, an EdU label was correctly detected, and then proliferation of cells was reflected. In this example, expression of Ki-67 in the cells was detected by immunofluorescence (immunocytochemistry), and apoptosis was analyzed by referring to a one-step TUNEL cell apoptosis detection kit (red fluorescence). Meanwhile, this example used a flow cytometry technology to complete detection of a cell cycle and apoptosis.

[4] = test system: mouse primary islet β cells; assay: EdU-488 cell proliferation test; type: cell-based; settings: PA alone, or SV 1 mmol/L after PA compared with PA group
Excerpt: as §2, §3
(§4) The following drugs are taken as comparative examples: • 1. […]

Beta-TC-6 cells [5] = assay: Flow cytometry apoptosis analysis; type: cell-based, mouse; settings: Beta-TC-6, flow cytometry; PA intervention, then SV intervention
Excerpt: as §3
Sodium valerate SV can weaken PA induced apoptosis to a certain extent (FIG. 17).

[6] = test system: mouse primary islet β cells; assay: TUNEL cell apoptosis detection test; type: cell-based; settings: PA intervention, then SV intervention
Excerpt: as §2, §3

Beta-TC-6 cells [7] = assay: EdU-488 cell proliferation test; type: cell-based, mouse; settings: PA alone, or SV 1 mmol/L after PA compared with PA group
Excerpt: as §2, §3, §4

[8] = test system: Leptin receptor gene deficient db/db mice; assay: Type 2 diabetes model db/db mice: food intake, body weight, blood glucose-related indexes; type: in vivo; settings: comparison among groups / vs PBS control group
Procedure: The following drugs are taken as comparative examples: • 1. Comparative example where an existing drug serves as a positive control • (1) High-fat fed C57BL6/J mice • Sodium butyrate gavage intervention group: 75.0 mg/kg • (2) Type 2 diabetes model db/db mice • Sodium butyrate gavage intervention group: 75.0 mg/kg • Harmine gavage intervention group: 10.0 mg/kg • Metformin gavage intervention group: 100.0 mg/kg • (3) Cell line of mouse insulinoma islet β cells (Beta-TC-6) • Sodium butyrate intervention group: 1.0 mmol/L • Harmine intervention group: 10.0 μmmol/L • (4) Mouse islet β primary cell • Sodium butyrate intervention group: 1.0 mmol/L • Harmine intervention group: 10.0 μmmol/L • 2. A control test is taken as a comparative example • (1) High-fat fed C57BL6/J mice • Ordinary feed feeding group, and high-fat feed PBS gavage group • (2) Type 2 diabetes model db/db mice • Control feeding group and PBS gavage group • (3) Cell line of mouse insulinoma islet β cells (Beta-TC-6) • Blank control group, and palmitic acid (PA) intervention negative control group • (4) Mouse islet β primary cell • Blank control group, and PA intervention negative control group • Results are as follows:
(II) In the animal test, the therapeutic effect of the valeric acid on diabetes is observed by using Leptin receptor gene deficient db/db mice (purchased from Nanjing Junke Biotechnology Co., Ltd.) as test subjects.

| Compound | secretion levels of the insulin stimulated under a high glucose environment (Beta-TC-6 cell line [1]) | secretion levels of the insulin stimulated under a high glucose environment [2] | proportion of apoptotic cells (TUNEL) (Beta-TC-6 cell line [3]) | proportion of EdU (+) cells [4] | secretion ability of the insulin (Beta-TC-6 cell line [1]; PA intervention) | proportion of apoptotic cells, Q2 quadrant (late apoptosis) and Q3 quadrant (early apoptosis) (Beta-TC-6 cells [5]) | secretion ability of the insulin ([2]; PA intervention) | proportion of apoptotic cells (TUNEL) [6] | proportion of EdU (+) cells (Beta-TC-6 cells [7]) | insulin secretion [8] | secretion levels of the insulin stimulated under a high glucose environment (Beta-TC-6 cell line [1]; listed as SV) | secretion levels of the insulin stimulated under a high glucose environment ([2]; listed as SV) |
| --- | --- | --- | --- | --- | --- | --- | --- | --- | --- | --- | --- | --- |
| COc1ccc2c(c1)[nH]c1c(C)nccc12 [Harmine] | significantly increased | significantly increased |  |  |  |  |  |  |  |  |  |  |
| CCCCCCCCCCCCCCCC(=O)O [PA, palmitic acid, reference compound] |  |  | increased significantly | decreased significantly | decreased significantly | increased significantly | decreased significantly | increased significantly | decreased significantly |  |  |  |
| CCCC(=O)[O-].[Na+] [Sb, sodium butyrate] | significantly increased | significantly increased |  |  |  |  |  |  |  |  |  |  |
| CN(C)C(=N)N=C(N)N [metformin, reference compound] |  |  |  |  |  |  |  |  |  | basically no difference |  |  |
| CCCCC(=O)[O-].[Na+] [sodium valerate] | more significant | more significant | slightly decreased | increased significantly |  | decreased significantly |  | slightly decreased | increased significantly |  | significantly increased | significantly increased |
